Assay results as given in publication PMC8456958, “Selective Bacterial Targeting and Infection‐Triggered Release of Antibiotic Colistin Conjugates” (Angewandte Chemie (International Ed. in English), 2021).
Positions of bridges follow the written chain, without caps; N, C: chain ends. Non-standard residues stand in square brackets, D forms with d. Residues, ends and D or L forms follow the SMILES beside them. *: point of attachment. Heptanoyl(6-Me) = CC(C)CCCCC(=O)*; Dab = NCC[C@H](N)C(=O)O

Target: T1, neutrophil elastase (NE) (Homo sapiens, UniProt P08246)
T1 construct: Activity of NE after co‐cultivation of PMN with E. coli K12 in presence of 1 or 6; endogenous in cells; host or cells: primary human PMN isolated from fresh venous whole blood of healthy volunteers, co-cultivated with E. coli K12
T1 sequence (P08246 30-267): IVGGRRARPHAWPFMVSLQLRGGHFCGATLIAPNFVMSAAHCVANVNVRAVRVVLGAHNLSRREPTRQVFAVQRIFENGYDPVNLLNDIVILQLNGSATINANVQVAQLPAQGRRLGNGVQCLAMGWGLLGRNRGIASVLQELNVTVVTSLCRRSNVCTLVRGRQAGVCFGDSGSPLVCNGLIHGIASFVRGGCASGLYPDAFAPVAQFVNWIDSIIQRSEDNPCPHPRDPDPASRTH
Assay: Activity of NE in co-cultivation of PMN with E. coli K12 (MeOSuc-AAPV-pNA cleavage)
Type: cell-based
Settings: 10 μM; PMN co-cultivated with E. coli K12, 1 h, 37 °C, RPMI 1640/HEPES-NaCl 1:1; mean of two experiments
Description: Figure 5 Cellular proof of concept for triggered antibiotic release from 6. a) Release of neutrophil elastase (NE) from neutrophil granulocytes. PMN were isolated and suspended in RPMI 1640. For activation, 0.1 μM fMLP was added. The samples were incubated for 1 h at 37 °C, centrifuged to remove cells, and the NE concentration was determined in the supernatant by ELISA. Values normalized to 1×10^6 cells mL^−1. Data are presented as the mean of 4 separate experiments. *p<0.03 compared to unactivated. b) Activity of NE after co‐cultivation of PMN with E. coli K12 in presence of 1 or 6. […] After 1 h colistin concentrations were determined by HPLC–MS. […]
Calculation of results: All samples and standards were measured in duplicate. The standard curve was constructed by plotting the mean absorbance for each standard on the y-axis against the concentration on the x-axis. A linear regression analysis was performed and the results for the samples were calculated. […]
on. […] The plate was incubated in a microplate reader for 60 min at 37 °C with shaking for 5 sec at 50 rpm once per minute.
Every minute readings were taken at 410 nm. For the calculation of the cleavage velocity, the difference in absorbance after an initialization phase at 15 min and a further incubation time of 30 min was used and related to total cleavage of the substrate. The blank was subtracted from the readings. […]

## CC(C)CCCCC(=O)N[C@@H](CCN)C(=O)N[C@H](C(=O)N[C@@H](CCN)C(=O)N[C@H]1CCNC(=O)[C@H]([C@@H](C)O)NC(=O)[C@H](CCN)NC(=O)[C@H](CCN)NC(=O)[C@H](CC(C)C)NC(=O)[C@@H](CC(C)C)NC(=O)[C@H](CCN)NC1=O)[C@@H](C)O [Compound 1, colistin B, reference compound] ({Heptanoyl(6-Me)}-[Dab]T[Dab][Dab][Dab][dL]L[Dab][Dab]T; lactam 4-C)
  enhancing effect on the activity of NE: 2.3–2.5 fold
